Data published in publication PMC9119131, “Fragile protein folds: sequence and environmental factors affecting the equilibrium of two interconverting, stably folded protein conformations” (Magnetic resonance, 2021).

What was measured:
[1] = molecular target: T1, ARNT PAS-B (aryl hydrocarbon receptor nuclear translocator) (Homo sapiens, UniProt P27540, Y456T); experiment: […]/1H HSQC NMR titration ([…]/1H HSQC titration also gave Kd […]); type: binding
T1 construct: PAS-B domain, residues 356–470 (with N-terminal GAMD cloning artifact)
T1 sequence (P27540 356-470 Y456T): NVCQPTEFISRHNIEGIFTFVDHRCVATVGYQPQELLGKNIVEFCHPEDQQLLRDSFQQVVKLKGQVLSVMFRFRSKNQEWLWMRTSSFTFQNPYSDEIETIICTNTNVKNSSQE

[2] = molecular target: T1, ARNT PAS-B (aryl hydrocarbon receptor nuclear translocator); experiment: […]/1H HSQC NMR titration (L391 δ[…] methyl); type: binding

SMILES	Kd [1]	Kd [2]
FC(F)(F)c1cc(-c2nn[nH]n2)cc(C(F)(F)F)c1 [KG-548, 5-(3,5-bis(trifluoromethyl)phenyl)tetrazole]	0.684 ± 0.0331 mM	–
Oc1cc(C(F)(F)F)cc(C(F)(F)F)c1 [KG-655, 3,5-bis(trifluoromethyl)phenol]	–	1.95 ± 0.152 mM
